As a reminder, the melting point is the temperature, or range, at which the solid turns liquid. In general, inhibition refers to the change of the read-out against control, counted positive when it falls.

This is an account of results in article PMC7694773, “Synthesis, 3D-QSAR, and Molecular Modeling Studies of Triazole Bearing Compounds as a Promising Scaffold for Cyclooxygenase-2 Inhibition” (Pharmaceuticals, 2020).

Where “and” joins values, the source holds several entries; their conditions need not be identical. Equal values may be shown once. Read-outs that look alike come from different tables or passages of the source.

In one data set the target is T1, human recombinant COX-2 (Homo sapiens, UniProt P35354).
T1 construct: purchased Cayman Chemical 560131
T1 sequence (P35354 18-604): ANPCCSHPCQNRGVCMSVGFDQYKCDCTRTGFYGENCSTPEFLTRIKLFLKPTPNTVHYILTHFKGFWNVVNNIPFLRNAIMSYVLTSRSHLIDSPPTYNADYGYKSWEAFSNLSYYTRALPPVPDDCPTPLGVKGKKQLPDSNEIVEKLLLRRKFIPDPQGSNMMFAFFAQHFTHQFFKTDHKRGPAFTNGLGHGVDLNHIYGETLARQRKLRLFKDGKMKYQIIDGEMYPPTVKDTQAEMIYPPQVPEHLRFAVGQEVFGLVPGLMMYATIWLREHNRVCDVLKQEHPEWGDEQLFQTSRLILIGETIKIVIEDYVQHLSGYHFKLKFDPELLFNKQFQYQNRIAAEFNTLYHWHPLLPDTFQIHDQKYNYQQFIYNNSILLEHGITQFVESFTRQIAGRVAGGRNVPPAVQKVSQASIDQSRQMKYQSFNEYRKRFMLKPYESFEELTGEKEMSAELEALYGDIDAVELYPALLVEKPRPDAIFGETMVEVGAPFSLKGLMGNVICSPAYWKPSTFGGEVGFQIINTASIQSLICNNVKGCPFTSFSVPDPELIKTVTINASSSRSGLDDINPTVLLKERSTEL
In words: In vitro COX-2 inhibition, enzyme immunoassay kit (Cayman item no. 560131). In kind it is biochemical. An excerpt: (§1) The in vitro COX-1/COX-2 isozyme inhibition studies measure the ability of tested compounds to inhibit bovine COX-1 and human recombinant COX-2 using an enzyme immunoassay (COX inhibitor screening assay kit, item no. 560131) according to the manufacturer’s instructions. […].

The target of the next data set is T2, egg albumin (Gallus gallus, UniProt P01012).
T2 sequence (P01012 1-386): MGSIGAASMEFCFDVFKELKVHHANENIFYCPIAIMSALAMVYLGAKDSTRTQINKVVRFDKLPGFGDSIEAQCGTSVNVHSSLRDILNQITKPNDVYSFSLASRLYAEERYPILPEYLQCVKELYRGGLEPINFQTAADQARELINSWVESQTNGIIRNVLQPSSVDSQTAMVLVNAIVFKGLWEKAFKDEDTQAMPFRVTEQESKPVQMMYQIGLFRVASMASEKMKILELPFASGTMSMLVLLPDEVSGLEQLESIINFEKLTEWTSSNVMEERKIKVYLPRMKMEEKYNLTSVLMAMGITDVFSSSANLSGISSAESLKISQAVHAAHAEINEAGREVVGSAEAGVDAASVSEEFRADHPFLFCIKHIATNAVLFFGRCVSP
Description: In situ anti-inflammatory assay: inhibition of protein (albumin) denaturation. The settings on record: for LogIC50 protein denaturation: GraphPad prism curve fit, IC50 in µM (Figure 3); for IC50: non-linear regression, sigmoidal dose-inhibition fit, GraphPad prism; for inhibition at 1000 µM / % of inhibition ± SEM at conc. 0.1 / % of inhibition ± SEM at conc. 1 / % of inhibition ± SEM at conc. 10 / % of inhibition ± SEM at conc. 100: protein denaturation, three replicates; for inhibition at 1000 µM: conc. 1000 µM, read-out: % of inhibition ± SEM at conc. 1000; for % of inhibition ± SEM at conc. 0.1: conc. 0.1 (µM); for % of inhibition ± SEM at conc. 1: conc. 1 (µM); for % of inhibition ± SEM at conc. 10: conc. 10 (µM); for % of inhibition ± SEM at conc. 100: conc. 100 (µM). As for the experimental part: Protein denaturation is used for the evaluation of anti-inflammatory activity. In this methodology, generally, tertiary and secondary protein structures will typically be destroyed by the application of an external molecule or stress. The biological function of most bio-proteins is lost if it is denatured. It is well reported that a basis of inflammation is denaturation of protein.
The reaction mixture is molecules with serial dilutions (1000, 100, 10, 1, 0.1 µM), phosphate buffered saline (PBS; pH 6.4), and egg albumin. The control used was double distilled water (equal volume). […] After attaining ambient temperature, the absorbance of samples was measured spectrophotometrically at 660 nm using vehicle as blank. […] The experiment was performed in triplicate. Percent inhibition of protein denaturation was calculated using the Equation Inhibition (%) of protein denaturation inhibition (%) = (AC − AS)/AC × 100 where AC: absorbance of control, AS: absorbance of sample.

In a further data set the target is T3, bovine COX-1 (Ovis aries, UniProt P05979).
T3 construct: purchased Cayman Chemical 560131
T3 sequence (P05979 25-600): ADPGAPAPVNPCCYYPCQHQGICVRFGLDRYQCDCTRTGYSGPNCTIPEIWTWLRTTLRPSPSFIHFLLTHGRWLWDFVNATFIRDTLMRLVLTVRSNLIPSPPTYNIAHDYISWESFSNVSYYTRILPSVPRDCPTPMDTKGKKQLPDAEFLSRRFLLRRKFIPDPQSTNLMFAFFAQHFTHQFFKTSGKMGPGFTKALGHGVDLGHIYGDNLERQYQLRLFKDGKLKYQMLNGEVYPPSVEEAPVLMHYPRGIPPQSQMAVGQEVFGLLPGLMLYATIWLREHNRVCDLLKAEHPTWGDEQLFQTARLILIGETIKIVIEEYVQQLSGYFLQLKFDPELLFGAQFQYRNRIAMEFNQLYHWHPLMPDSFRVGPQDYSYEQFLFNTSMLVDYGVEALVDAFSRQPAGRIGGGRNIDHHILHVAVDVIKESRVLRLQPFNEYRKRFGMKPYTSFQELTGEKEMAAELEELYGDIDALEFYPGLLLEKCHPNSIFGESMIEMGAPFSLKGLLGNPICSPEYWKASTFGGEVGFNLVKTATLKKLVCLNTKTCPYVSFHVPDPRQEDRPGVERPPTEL
Description: In vitro COX-1 inhibition, enzyme immunoassay kit (Cayman item no. 560131). In kind it is biochemical. The conditions noted are these: mean of two determinations.
Description: as §1

Setting [1] is: human recombinant COX-2, mean of two determinations, read-out: IC50 COX-2.
Where [2] appears, read: pIC50 = −Log (IC50) of the COX-2 IC50, read-out: Activity (experimental pIC50, COX-2) (converted).

`COc1ccc(C=Nn2c(S)nnc2COc2ccc3ccccc3c2)cc1` [Compound 9d, 4-((4-methoxybenzylidene)amino)-5-((naphthalen-2-yloxy)methyl)-4H-1,2,4-triazole-3-thiol] returned a melting point of 177 to 178 °C. The “COX-2 S.I. (selectivity index, COX-1 IC50/COX-2 IC50)” value at human recombinant COX-2 was 53.1. Further, on human recombinant COX-2 (setting [1]), the IC50 was determined as 150 nM. The IC50 at human recombinant COX-2 (setting [2]) is 150 nM. In addition, at egg albumin, the LogIC50 protein denaturation worked out at 0.9126; the IC50 is 8170 nM and 8180 nM; the inhibition at 1000 µM is 51%; the “% of inhibition ± SEM at conc. 0.1” value is 8.97±0.97%. Further, on egg albumin, the “% of inhibition ± SEM at conc. 1” value stood at 18.95±1.04%, the “% of inhibition ± SEM at conc. 10” value is 31.86±0.96% and the “% of inhibition ± SEM at conc. 100” value is listed as 49.08±1.05%. Moreover, at bovine COX-1, the IC50 worked out at 7970 nM.
`COc1ccc(C=Nn2c(COc3ccc4ccccc4c3)nnc2Sc2cnc(N)s2)cc1` [Compound 12d, 5-((4-((4-methoxybenzylidene)amino)-5-((naphthalen-2-yloxy)methyl)-4H-1,2,4-triazol-3-yl)thio)thiazol-2-amine] came in with a melting point of 69 to 70 °C. Also, the “COX-2 S.I. (selectivity index, COX-1 IC50/COX-2 IC50)” value on human recombinant COX-2 was 311.0 and 325.0. Besides, the IC50 on human recombinant COX-2 (setting [1]) was found to be 40 nM. The IC50 at human recombinant COX-2 (setting [2]) is 41.8 nM and 40.1 nM. Besides, on egg albumin, the LogIC50 protein denaturation is recorded as -0.008534; the IC50 was 981 nM and 980 nM; the inhibition at 1000 µM was determined as 91.2%; the “% of inhibition ± SEM at conc. 0.1” value came out at 29.21±1.12%. Further, on egg albumin, the “% of inhibition ± SEM at conc. 1” value is recorded as 59.20±1.34%, the “% of inhibition ± SEM at conc. 10” value was found to be 72.12±1.27% and the “% of inhibition ± SEM at conc. 100” value amounted to 89.31±1.26%. The compound also gave an IC50 against bovine COX-1 of 13000 nM.
